Test systems include NCI-H23; OVCAR-3; KM12; SK-MEL-2; NCI-H226; SK-MEL-5; A549; DLD-1; SK-OV-3; U-251; MCF7; TK-10; SF-539; T47D; Malme-3M; CAKI-1; SR; HCC 2998; UACC-62; MDA-N.
Holding throughout (assay): inhibition of tumour cell growth, NCI panel, 48 h

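All cell lines were grown in 96-well plates and treated with compound for 48 hours. GI50 = concentration required for 50% inhibition of growth.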 The source made the active and inactive calls. Cut-off read from the data, not from the text of the source: active = GI50 up to about 1.1 µM and inactive = higher.

As for `Cc1ccc2ccc3ccc(C)nc3c2n1` [NEOCUPROINE], the GI50 in the assay on NCI-H23 was 0.439 µM (active); in the assay with OVCAR-3, 0.344 µM (active); with KM12, 12.5 µM (inactive); with SK-MEL-2 it was > 100 µM (inactive); in the assay with NCI-H226 it was 33.4 µM (inactive); with SK-MEL-5 it was > 26.2 µM (inactive). In addition, the GI50 in the assay with A549 was 7.11 µM (inactive); in the assay with DLD-1 it was 0.656 µM (active); in the assay with SK-OV-3, > 100 µM (inactive); in the assay with U-251, 7.31 µM (inactive); in the assay with MCF7, 0.318 µM (active); with TK-10 it was > 100 µM (inactive). The GI50 in the assay on SF-539 was 49.2 µM (inactive); in the assay on T47D, 1.06 µM (active); in the assay with Malme-3M, > 100 µM (inactive); with CAKI-1, > 100 µM (inactive); in the assay on SR it was 0.728 µM (active); in the assay on HCC 2998, 6.38 µM (inactive). For the same molecule, the values for the GI50 with UACC-62 and in the assay on MDA-N were 3.03 µM (inactive) and > 100 µM (inactive), respectively.

On to `CCc1cccc(CC)c1NC(=O)C(C#N)C1=C(Cl)C(=O)c2ccccc2C1=O` (stereo not given), for which the GI50 was 13 µM (inactive) in the assay on NCI-H23; 16.8 µM (inactive) in the assay on OVCAR-3; 18.9 µM (inactive) in the assay with KM12; 18.8 µM (inactive) in the assay with SK-MEL-2; 15 µM (inactive) in the assay on NCI-H226; 14.7 µM (inactive) with SK-MEL-5. The GI50 in the assay on A549 is 18.5 µM (inactive); in the assay with DLD-1, 17.4 µM (inactive); in the assay on SK-OV-3 it was 19.7 µM (inactive); in the assay on U-251 it was 15.3 µM (inactive); in the assay on MCF7, 14.6 µM (inactive); in the assay on TK-10, 21.2 µM (inactive). Also, the GI50 in the assay with SF-539 is 11.3 µM (inactive); with T47D, 3.79 µM (inactive); in the assay with Malme-3M it was 9.23 µM (inactive); in the assay on CAKI-1, 15.6 µM (inactive); with SR, 1.2 µM (inactive); in the assay on HCC 2998, 16.9 µM (inactive). The results for the GI50 in the assay with UACC-62 and in the assay with MDA-N were 17.5 µM (inactive) and 16.7 µM (inactive), respectively.

Regarding `O=C[C@@H](CO)O[C@H](C=O)c1c[nH]c(=O)[nH]c1=O`, the GI50 was 69.3 µM (inactive) with NCI-H23; 68.4 µM (inactive) in the assay on OVCAR-3; 93.3 µM (inactive) with KM12; 100 µM (inactive) in the assay on SK-MEL-2; 101 µM (inactive) in the assay on NCI-H226; 83.9 µM (inactive) in the assay on SK-MEL-5. Moreover, the GI50 is 192 µM (inactive) with A549; 75 µM (inactive) with DLD-1; 112 µM (inactive) in the assay with SK-OV-3; 143 µM (inactive) in the assay with U-251; 45.2 µM (inactive) in the assay on MCF7; 104 µM (inactive) with TK-10. Further, the GI50 in the assay on SF-539 is 101 µM (inactive); in the assay with T47D it was 73.6 µM (inactive); in the assay with Malme-3M, 88.7 µM (inactive); with CAKI-1, 71.6 µM (inactive); with SR, 35.6 µM (inactive); in the assay with HCC 2998 it was 98.4 µM (inactive). Moreover, the GI50 is 72.8 µM (inactive) in the assay with UACC-62 and 70.8 µM (inactive) in the assay on MDA-N.

These data come from ChEMBL document CHEMBL1201862, “PubChem BioAssay data set” (2004).
